Literature values as cited in PMC7395068, “The evolution of strategies to minimise the risk of human drug-induced liver injury (DILI) in drug discovery and development” (Archives of Toxicology, 2020).
Read-outs that look alike come from different tables or passages of the source.

What was measured:
[1] = cited from earlier work
human hepatocytes = settings: cited from earlier work
[2] = tested on: HepG2 C3A spheroid, BSEP, Glu/Gal in HepG2 cells, bioactivation; settings: cited from earlier work
RMPCC's = settings: cited from earlier work
hu-MPCC = settings: cited from earlier work
[3] = cited from earlier work; remark: listed apart in the source
HepG2 cells [4] = settings: cited from earlier work
[5] = tested on: THLE or HepG2 cells, isolated mitochondria, BSEP; settings: cited from earlier work
HepG2 cells [6] = settings: cited from earlier work; remark: listed apart in the source
PHH = settings: cited from earlier work
[7] = tested on: primary human hepatocytes, NIH3T3 fibroblasts, BSEP, CYP3A4; settings: In vitro Assay; ref Schadt 2015; cited from earlier work
[8] = tested on: HepG2 cells, primary human hepatocytes; settings: cited from earlier work
PHH spheroids = settings: In vitro Assay; ref Vorrink 2018; cited from earlier work
hLiMTs = settings: cited from earlier work
HepG2 cells [9] = settings: cited from earlier work; remark: listed apart in the source
[10] = ref Chen 2011; cited from earlier work
[11] = tested on: THLE-Null and THLE-3A4 cells; settings: In vitro Assay; ref Gustafsson 2014; cited from earlier work
[12] = tested on: isolated mouse liver mitochondria; settings: In vitro Assay; ref Porceddu 2012; cited from earlier work
[13] = In vitro Assay, ref Garside 2014
[14] = In vitro Assay, ref Khetani 2012
[15] = In vitro Assay, ref Persson 2013
[16] = In vitro Assay, ref O'Brien 2006

C[C@H](CS)C(=O)N1CCC[C@H]1C(=O)O [captopril]
DILI +VE (5-8), DILI -VE (-4) ([1]; in vivo): +VE | DILI severity category ([1]; in vivo): vLess-DILI-Concern | Structural based (HCI) (human hepatocytes): -VE | Bayesian Machine Learning [2]: +VE | RMPCC's (RMPCC's): -VE | HMPCC's (hu-MPCC): -VE | In vivo DILI ([3]; in vivo): +VE | Structural based (HCI) (HepG2 cells [4]): +VE | Ro2 Hybrid HRM Score [5]: -VE | Structural based (HCI) (HepG2 cells [6]): +VE

CNCCC(Oc1ccc(C(F)(F)F)cc1)c1ccccc1 (centres unmarked) [fluoxetine]
PHH ATP <100uM (PHH): -VE | DILI +VE (5-8), DILI -VE (-4) ([1]; ref Chen 2016): +VE | DILI severity category ([1]; ref Chen 2016): vLess-DILI-Concern | Cellular toxicity (3T3 cells) [7]: +VE | Combined Assay [7]: -VE | GSH adduct HML [7]: -VE | Hepatocyte cellular toxicity [7]: -VE | MitoTox 3T3 [7]: -VE | TDI CYP3A4 [7]: -VE | hBSEP inhibition [7]: -VE | Cluster 1-6 +VE Assay [8]: +VE | Structural based (HCI) (human hepatocytes): -VE | hLiMTs ATP <20 x Cmax (PHH spheroids): -VE | Bayesian Machine Learning [2]: +VE | hLiMTs ATP <100uM (hLiMTs): +VE (key: +VE: IC50 threshold of 100 µM) | RMPCC's (RMPCC's): -VE | Cluser analysis (HepG2 cells [9]): +VE | DILI Score (FDA) (1-8) [10]: 3 | HMPCC's (hu-MPCC): -VE | In vivo DILI ([3]; […]): -VE | In vivo DILI ([3]; ref Aleo 2019): +VE | In vivo DILI ([3]; ref Garside 2014): +VE | In vivo DILI ([3]; ref Khetani 2012): -VE | In vivo DILI ([3]; ref Persson 2013): +VE | In vivo DILI ([3]; ref Proctor 2017): +VE | In vivo DILI ([3]; ref Schadt 2015): -VE | In vivo DILI ([3]; ref Tolosa 2012): +VE | In vivo DILI ([3]; ref Vorrink 2018): -VE | In vivo DILI ([3]; ref Williams 2019): +VE | In vivo DILI ([3]; ref Xu 2008): -VE

CC(C(=O)O)c1ccc(-c2ccccc2)c(F)c1 (centres unmarked) [flurbiprofen]
DILI +VE (5-8), DILI -VE (-4) ([1]; ref Chen 2016): -VE | DILI severity category ([1]; ref Chen 2016): Ambiguous DILI-concern | Cellular toxicity (3T3 cells) [7]: -VE | Combined Assay [7]: -VE | GSH adduct HML [7]: -VE | Hepatocyte cellular toxicity [7]: -VE | MitoTox 3T3 [7]: -VE | TDI CYP3A4 [7]: -VE | hBSEP inhibition [7]: -VE | Cluster 1-6 +VE Assay [8, 13]: -VE | Structural based (HCI) (human hepatocytes; In vitro Assay, ref Xu 2008): +VE | THLE-Null [11]: -VE | THLE-Null/3A4 [11]: -VE | RMPCC's (RMPCC's; [14]): +VE | DILI Score (FDA) (1-8) [10]: 3 | HMPCC's (hu-MPCC; [14]): +VE | In vivo DILI ([3]; ref Garside 2014): +VE | In vivo DILI ([3]; ref Gustafsson 2014): +VE | In vivo DILI ([3]; ref Khetani 2012): +VE | In vivo DILI ([3]; ref Schadt 2015): -VE | In vivo DILI ([3]; ref Xu 2008): +VE | Partition Hybrid HRM Score ([5]; In vitro Assay, ref Aleo 2019): +VE | Ro2 Hybrid HRM Score ([5]; In vitro Assay, ref Aleo 2019): +VE

CN1C(C(=O)Nc2ccccn2)=C(O)c2ccccc2S1(=O)=O [piroxicam]
DILI +VE (5-8), DILI -VE (-4) ([1]; ref Chen 2016): +VE | DILI severity category ([1]; ref Chen 2016): vLess-DILI-Concern | Cellular toxicity (3T3 cells) [7]: -VE | Combined Assay [7]: -VE | GSH adduct HML [7]: -VE | Hepatocyte cellular toxicity [7]: -VE | MitoTox 3T3 [7]: -VE | TDI CYP3A4 [7]: -VE | hBSEP inhibition [7]: -VE | Structural based (HCI) (human hepatocytes; In vitro Assay, ref Xu 2008): -VE | hLiMTs ATP <20 x Cmax (PHH spheroids): -VE | RMPCC's (RMPCC's; [14]): +VE | Cluser analysis (HepG2 cells [9]; [15]): -VE | Structural based (HCI) (HepG2 cells [9]; [15]): -VE | DILI Score (FDA) (1-8) [10]: 3 | HMPCC's (hu-MPCC; [14]): -VE | In vivo DILI ([3]; […]): +VE | In vivo DILI ([3]; ref Aleo 2019): +VE | In vivo DILI ([3]; ref Khetani 2012): +VE | In vivo DILI ([3]; ref O'Brien 2006): +VE | In vivo DILI ([3]; ref Persson 2013): +VE | In vivo DILI ([3]; ref Porceddu 2012): +VE | In vivo DILI ([3]; ref Schadt 2015): -VE | In vivo DILI ([3]; ref Vorrink 2018): +VE | In vivo DILI ([3]; ref Xu 2008): +VE | Partition Hybrid HRM Score ([5]; In vitro Assay, ref Aleo 2019): -VE | Ro2 Hybrid HRM Score ([5]; In vitro Assay, ref Aleo 2019): +VE | in vitro data EC2<=1x Cmax [12]: +VE | in vitro data EC20<=2uM [12]: +VE | Structural based (HCI) (HepG2 cells [6]; [16]): +VE

NC(=O)c1cnccn1 [pyrazinamide]
DILI +VE (5-8), DILI -VE (-4) ([1]; ref Chen 2016): +VE | DILI severity category ([1]; ref Chen 2016): vLess-DILI-Concern | Cluster 1-6 +VE Assay [8, 13]: -VE | Structural based (HCI) (human hepatocytes; In vitro Assay, ref Xu 2008): -VE | RMPCC's (RMPCC's; [14]): -VE | DILI Score (FDA) (1-8) [10]: 3 | HMPCC's (hu-MPCC; [14]): +VE | In vivo DILI ([3]; […]): +VE | In vivo DILI ([3]; ref Aleo 2019): +VE | In vivo DILI ([3]; ref Garside 2014): +VE | In vivo DILI ([3]; ref Khetani 2012): +VE | In vivo DILI ([3]; ref O'Brien 2006): +VE | In vivo DILI ([3]; ref Porceddu 2012): +VE | In vivo DILI ([3]; ref Xu 2008): +VE | Partition Hybrid HRM Score ([5]; In vitro Assay, ref Aleo 2019): +VE | Ro2 Hybrid HRM Score ([5]; In vitro Assay, ref Aleo 2019): -VE | in vitro data EC2<=1x Cmax [12]: +VE | in vitro data EC20<=2uM [12]: +VE | Structural based (HCI) (HepG2 cells [6]; [16]): +VE

O=c1n(CCCN2CCN(c3cccc(Cl)c3)CC2)nc2ccccn12 [trazodone]
DILI +VE (5-8), DILI -VE (-4) ([1]; ref Chen 2016): +VE | DILI severity category ([1]; ref Chen 2016): vLess-DILI-Concern | Structural based (HCI) (human hepatocytes; In vitro Assay, ref Xu 2008): +VE | hLiMTs ATP <20 x Cmax (PHH spheroids): +VE (IC20 < 20 × Cmax.tot cut-off) | RMPCC's (RMPCC's; [14]): +VE | DILI Score (FDA) (1-8) [10]: 5 | HMPCC's (hu-MPCC; [14]): +VE | In vivo DILI ([3]; ref Aleo 2019): +VE | In vivo DILI ([3]; ref Khetani 2012): +VE | In vivo DILI ([3]; ref Vorrink 2018): +VE | In vivo DILI ([3]; ref Xu 2008): +VE | Partition Hybrid HRM Score ([5]; In vitro Assay, ref Aleo 2019): +VE | Ro2 Hybrid HRM Score ([5]; In vitro Assay, ref Aleo 2019): +VE
